Reference: article PMC10535864, “Novel Aminopyrimidine-2,4-diones, 2-Thiopyrimidine-4-ones, and 6-Arylpteridines as Dual-Target Inhibitors of BRD4/PLK1: Design, Synthesis, Cytotoxicity, and Computational Studies” (Pharmaceuticals, 2023)
Like-named read-outs stand apart in the source and are kept apart here. Each block holds one compound with its values, some of them ahead of it.

Tests used:
[1] = system: MDA-MB-231 breast cancer cells; experiment: MTT cytotoxicity assay, MDA-MB-231; format: cell-based; details: for IC50 / viability at 0.312 µM / viability at 0.625 µM / viability at 1.25 µM / viability at 2.5 µM / viability at 5 µM / viability at 10 µM: Homo sapiens; for IC50 / viability at 0.312 µM / viability at 0.625 µM / viability at 1.25 µM / viability at 2.5 µM / viability at 5 µM / viability at 10 µM / Toxicity %: MDA-MB-231
Outline: (§1)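 Cells seeded at 1 X 10^5 cells/mL and grown 24 h at 37°C to a monolayer, then exposed to two-fold compound dilutions in RPMI with 2% serum, six doses. MTT added for 4 h at 37°C, formazan dissolved in DMSO, OD read at 560 nm minus 620 nm background. IC50 from dose-response.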

[2] = MTT cytotoxicity assay, normal Vero cells; format: cell-based; details: African green monkey, normal Vero cells, MTT; for IC50: mean of three independent experiments ± SD, read-out: In Vitro Cytotoxicity against Normal Cells IC50 Value, Vero Cells; for viability at 0.312 µM / viability at 0.625 µM / viability at 1.25 µM / viability at 2.5 µM / viability at 5 µM / viability at 10 µM: Vero
Protocol: (§2) Using a six-dose MTT colorimetric assay [44, 66], all new synthetic compounds were tested for cytotoxicity against three cancer cell lines: MDA-MB-231 breast cancer cells, HT-29 colorectal adenocarcinoma cells, and U-937 renal cancer cells. […] These cell lines were supplied by ATCC (American Type Culture Collection) via the Holding company for biological products and vaccines (VACSERA, Cairo, Egypt). The reference control used was Methotrexate.
1.1.In-vitro cytotoxicity screening
(§3) Using a six-dose MTT colorimetric assay [44, 66], allnew synthetic compounds were tested for cytotoxicity against three cancer cell lines: MDA-MB-231 breast cancer cells,HT-29 colorectal adenocarcinoma cells, and U-937 renal
(§4) The cell lines were supplied by ATCC (American Type Culture Collection). The reference control used was Methotrexate. The cytotoxic activities of the examined compounds were quantified by inoculating a 96-well tissue culture plate with 1 X 10^5 cells / mL (100 uL/well) and incubating it at 37°C for 24 hours to develop a complete monolayer sheet. After forming a confluent sheet of cells, the growth medium was decanted from 96-well microtiter plates, and the cell monolayer was washed twice with wash media. Two-fold dilutions of tested samples were made in RPMI medium with 2% serum (maintenance medium), and 0.1 mL of each dilution was tested in different wells, with three wells serving as controls and receiving only maintenance medium. Following that, the plate was incubated at 37°C and examined. Cells were investigated for any physical signs of toxicity, such as partial or complete monolayer loss, rounding, shrinkage, or cell granulation. MTT solution was prepared (5mg/ml in PBS) (BIO BASIC CANADA INC), and 20 uL MTT solution was added to each well. After 5 minutes on a shaking table at150 rpm to thoroughly mix the MTT into the media, it was incubated (37C, 5% CO2) for 4 hours to allow the MTT to be metabolized. Formazan (MTT metabolic product) was resuspended in 200 uL DMSO and shaken at 150 rpm for 5 minutes to thoroughly mix the formazan into the solvent. The optical density was measured at 560 nm, and the background was subtracted at 620 nm. Finally, the IC50 of the test compound in comparison to the reference was calculated using the GraphPad Prism software.

normal Vero cells = experiment: MTT cytotoxicity assay, normal Vero cells; format: cell-based; details: Vero; for Toxicity %: MTT
Protocol: as §2
1.1.In-vitro cytotoxicity screening
as §3, §4

U-937 renal cancer cells = experiment: MTT cytotoxicity assay, U-937; format: cell-based; details: for IC50: Homo sapiens, U-937;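 for all read-outs here: Six-dose MTT colorimetric assay on cell monolayers, formazan absorbance read at 560 nm with 620 nm background removed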
Protocol: (§5) All newly synthetic compounds were tested for cytotoxicity using a six-dose MTT colorimetric assay on three cancer cell lines; namely, breast cancer cells (MDA-MB-231), colorectal adenocarcinoma cells (HT-29) and renal cancer cells (U-937).
as §2, §3, §4

[3] = MTT cytotoxicity assay, U-937; format: cell-based; details: Homo sapiens, U-937, U937, MTT;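 note: Six-dose MTT colorimetric assay on cell monolayers, formazan absorbance read at 560 nm with 620 nm background removed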
Protocol: as §5, §2, §3, §4

human recombinant PLK1 = human recombinant PLK1 (Homo sapiens, UniProt P53350); experiment: PLK1 inhibitory activity assay (ADP-Glo Kinase Assay); format: biochemical; details: for %inh: PLK1 Lab Report; for IC50: mean of three independent experiments, read-out: PLK1 IC50 ± SD
Sequence of human recombinant PLK1 (P53350 whole entry): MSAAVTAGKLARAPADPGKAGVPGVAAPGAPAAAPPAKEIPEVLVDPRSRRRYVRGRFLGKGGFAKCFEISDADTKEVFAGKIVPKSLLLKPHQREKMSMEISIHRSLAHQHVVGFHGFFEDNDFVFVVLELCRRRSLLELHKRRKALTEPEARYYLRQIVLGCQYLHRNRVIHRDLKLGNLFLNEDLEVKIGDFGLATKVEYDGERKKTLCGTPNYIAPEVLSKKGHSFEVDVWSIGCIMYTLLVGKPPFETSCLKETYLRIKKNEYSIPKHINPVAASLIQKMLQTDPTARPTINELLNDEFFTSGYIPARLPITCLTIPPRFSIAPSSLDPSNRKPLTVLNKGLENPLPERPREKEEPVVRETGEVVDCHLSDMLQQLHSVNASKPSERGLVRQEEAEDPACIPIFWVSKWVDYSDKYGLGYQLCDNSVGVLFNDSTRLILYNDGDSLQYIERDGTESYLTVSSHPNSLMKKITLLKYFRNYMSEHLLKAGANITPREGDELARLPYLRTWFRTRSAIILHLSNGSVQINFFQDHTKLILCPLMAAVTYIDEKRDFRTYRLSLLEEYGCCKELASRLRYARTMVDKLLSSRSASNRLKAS
Protocol: The BRD4 and PLK1 inhibitory assays were carried out in vitro in accordance with the manufacturer’s instructions; BRD4 was assessed using AlphaLISA Bromodomain Assay Protocol, and PLK1 kinase was tested using the ADP-Glo™ Kinase Assay Protocol, as detailed in the Supplementary file. […]
1.2.2. PLK1 inhibitory activity assay
The kinase reaction was performed with active human recombinant PLK1 and combined with the substrate dephosphorylated casein (positive control) using 1 X reaction buffer (40 mM Tris-HCl pH 7.4, 20 mM MgCl2, 0.1 mg/mL BSA, 1 mM DTT) and 20 μM ATP. The reaction was incubated at30°C for 45 minutes. The amount of ATP transferred was calculated using […] reagent from Promega according to the manufacturer’s instruction.
A plate-reading luminometer isused to measure the luminescence. […]

[4] = system: HT-29 colorectal adenocarcinoma cells; experiment: MTT cytotoxicity assay, HT-29; format: cell-based; details: for viability at 0.312 µM / viability at 0.625 µM / viability at 1.25 µM / viability at 2.5 µM / viability at 5 µM / viability at 10 µM / IC50: Homo sapiens, HT-29
Outline: as §1

BRD4 (BD2) = target: T1, BRD4 (BD2) (Homo sapiens, UniProt O60885); experiment: BRD4 inhibitory activity assay (AlphaLISA Bromodomain Assay); format: binding; details: for %inh: BRD4 Lab Report; for IC50: mean of three independent experiments, read-out: BRD4 IC50 ± SD;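 for all read-outs here: in vitro inhibition of recombinant BRD4 BD2 bromodomain binding to a BET bromodomain ligand, read by AlphaLISA proximity signal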
T1 construct: BRD4 (BD2) should be thawed on ice; purchased
Protocol: The BRD4 and PLK1 inhibitory assays were carried out in vitro in accordance with the manufacturer’s instructions; BRD4 was assessed using AlphaLISA Bromodomain Assay Protocol [67], and PLK1 kinase was tested using the ADP-Glo™ Kinase Assay Protocol [68], as detailed in the Supplementary file.
The BRD4 and PLK1 inhibitory assays were carried out in vitro in accordance with the manufacturer's instructions; BRD4 was assessed using AlphaLISA Bromodomain Assay Protocol [67], and PLK1 kinase was tested using the ADP-Glo™ Kinase Assay Protocol [68],
The master mixture was prepared as follows: N wells × (2.5 µL 3x BRD Homogeneous Assay Buffer 1 + 1 µL BET Bromodomain Ligand + 1.5 µL H2O). BRD4 (BD2) should be thawed on ice. Simply, the protein-containing tube was spined to recover the full content of the tube after the firstthaw. Both proteins should be aliquoted into single-use aliquots. Immediately, any remaining undiluted protein should be stored in aliquots at -80°C. BRD4 (BD2) was diluted in 1x BRD Homogeneous Assay Buffer 1 at 4 ng/µL. The diluted proteins were kept on ice until they were used. 5 µl of the master mixture is added to each well designated for the “Positive Control”, “Test Inhibitor”, and “Blank”. For the “Substrate Control”, 2.5 µL 3x BRD Homogeneous Assay Buffer 1 + 1 µL Non-acetylated Ligand 1 + 1.5 µL H2O is added. Each “Test Inhibitor” well received 2.5 µL of inhibitor solution, while the “Positive
Control”, “Substrate Control”, and “Blank” wells received 2.5 µL of the same solution without inhibitor (inhibitor buffer). Then, the “Blank” well is filled with 2.5 µL of 1x BRD Homogeneous Assay Buffer 1. After that, GSH
10 µL per well is added, the plate isshaken, and itis incubated at room temperature for 30 minutes. Streptavidin-
10 µL is added per well and incubated at room temperature for further 15 – 30 minutes [67]. The Alpha counts were read using the EnVision® multimode plate reader with the standard Alpha detection settings.

[5] = MTT, mean of three independent experiments ± SD, read-out: IC50 Value MDA-MB-231
[6] = MTT, mean of three independent experiments ± SD, read-out: IC50 Value U-937
[7] = SI = IC50 normal cells (Vero)/IC50 cancer cells
[8] = MTT, mean of three independent experiments ± SD, read-out: IC50 Value HT-29

%inh (human recombinant PLK1; conc 0.01 (unit not given)): 28%
%inh (human recombinant PLK1; conc 0.1 (unit not given)): 40%
%inh (human recombinant PLK1; conc 1 (unit not given)): 65%
%inh (human recombinant PLK1; conc 10 (unit not given)): 80%
%inh (human recombinant PLK1; conc 100 (unit not given)): 94%
IC50 (human recombinant PLK1): 204 ± 9 nM
%inh (BRD4 (BD2); conc 0.01 (unit not given)): 30%
%inh (BRD4 (BD2); conc 0.1 (unit not given)): 46%
%inh (BRD4 (BD2); conc 1 (unit not given)): 67%
%inh (BRD4 (BD2); conc 10 (unit not given)): 83%
%inh (BRD4 (BD2); conc 100 (unit not given)): 94%
IC50 (BRD4 (BD2)): 77 ± 3 nM
Structure (SMILES): COc1ccc(/C(CBr)=N\c2c(N)n(Cc3ccccc3Cl)c(=O)[nH]c2=O)cc1 [Compound 6b, (E)-6-Amino-5-((2-bromo-1-(4-methoxyphenyl)ethylidene)amino)-1-(2-chlorobenzyl) pyrimidine-2,4(1H,3H)-dione]
IC50 [1, 5]: 1000 ± 20 nM
viability at 0.312 µM ([1]; MTT, 0.312 uM): 84.9%
viability at 0.625 µM ([1]; MTT, 0.625 uM): 26.6%
viability at 1.25 µM ([1]; MTT, 1.25 uM): 10.2%
viability at 2.5 µM ([1]; MTT, 2.5 uM): 8.47%
viability at 5 µM ([1]; MTT, 5 uM): 8.55%
viability at 10 µM ([1]; MTT, 10 uM): 4.7%
IC50 ([1]; supplement viability lab report, read-out: IC50 ± SD): 630 nM
Toxicity % ([1]; MTT, 0.312 uM): 15.07%
Toxicity % ([1]; MTT, 0.625 uM): 73.45%
Toxicity % ([1]; MTT, 1.25 uM): 89.85%
Toxicity % ([1]; MTT, 2.5 uM): 91.53%
Toxicity % ([1]; MTT, 5 uM): 91.45%
Toxicity % ([1]; MTT, 10 uM): 95.3%
Selectivity Indices (SI) MDA-MB-231 ([1]; SI = IC50 normal cells (Vero)/IC50 cancer cells, ≥5 highly, >2 moderately, <2 non-selective): 1.95
IC50 [2]: 1950 ± 50 nM
viability at 0.312 µM [2]: 99.1%
viability at 0.625 µM [2]: 99.1%
viability at 1.25 µM [2]: 70.3%
viability at 2.5 µM [2]: 38.4%
viability at 5 µM [2]: 12.8%
viability at 10 µM [2]: 6.15%
IC50 (normal Vero cells; Chlorocebus sabaeus, supplement viability lab report): 2060 nM
Toxicity % (normal Vero cells; 0.312 uM): 0.9182%
Toxicity % (normal Vero cells; 0.625 uM): 0.8782%
Toxicity % (normal Vero cells; 1.25 uM): 29.74%
Toxicity % (normal Vero cells; 2.5 uM): 61.6%
Toxicity % (normal Vero cells; 5 uM): 87.19%
Toxicity % (normal Vero cells; 10 uM): 93.85%
IC50 (U-937 renal cancer cells; [6]): 1120 ± 20 nM
IC50 (U-937 renal cancer cells; supplement viability lab report, U937, read-out: IC50 ± SD): 970 nM
Selectivity Indices (SI) U-937 (U-937 renal cancer cells; [7]): 1.74
Toxicity % (U-937 renal cancer cells; U937, MTT, 0.312 uM): 0.9259%
Toxicity % (U-937 renal cancer cells; U937, MTT, 0.625 uM): 22.49%
Toxicity % (U-937 renal cancer cells; U937, MTT, 1.25 uM): 72%
Toxicity % (U-937 renal cancer cells; U937, MTT, 2.5 uM): 87.8%
Toxicity % (U-937 renal cancer cells; U937, MTT, 5 uM): 89.6%
Toxicity % (U-937 renal cancer cells; U937, MTT, 10 uM): 90.31%
viability at 0.312 µM [3]: 99.1%
viability at 0.625 µM [3]: 77.5%
viability at 1.25 µM [3]: 28%
viability at 2.5 µM [3]: 12.2%
viability at 5 µM [3]: 10.4%
viability at 10 µM [3]: 9.69%
Toxicity % ([4]; HT29, MTT, 0.312 uM): 0.3876%
Toxicity % ([4]; HT29, MTT, 0.625 uM): 47.33%
Toxicity % ([4]; HT29, MTT, 1.25 uM): 95.82%
Toxicity % ([4]; HT29, MTT, 2.5 uM): 95.95%
Toxicity % ([4]; HT29, MTT, 5 uM): 95.61%
Toxicity % ([4]; HT29, MTT, 10 uM): 93.71%
viability at 0.312 µM ([4]; HT29, MTT, 0.312 uM): 99.6%
viability at 0.625 µM ([4]; HT29, MTT, 0.625 uM): 52.7%
viability at 1.25 µM ([4]; HT29, MTT, 1.25 uM): 4.18%
viability at 2.5 µM ([4]; HT29, MTT, 2.5 uM): 4.05%
viability at 5 µM ([4]; HT29, MTT, 5 uM): 4.39%
viability at 10 µM ([4]; HT29, MTT, 10 uM): 6.29%
IC50 [4, 8]: 1690 ± 10 nM
IC50 ([4]; supplement viability lab report, HT29, read-out: IC50 ± SD): 750 nM
Selectivity Indices (SI) HT-29 [4, 7]: 1.15

%inh (human recombinant PLK1; conc 0.01 (unit not given)): 43%
%inh (human recombinant PLK1; conc 0.1 (unit not given)): 60%
%inh (human recombinant PLK1; conc 1 (unit not given)): 76%
%inh (human recombinant PLK1; conc 10 (unit not given)): 90%
%inh (human recombinant PLK1; conc 100 (unit not given)): 95%
IC50 (human recombinant PLK1): 20 ± 1 nM
%inh (BRD4 (BD2); conc 0.01 (unit not given)): 38%
%inh (BRD4 (BD2); conc 0.1 (unit not given)): 56%
%inh (BRD4 (BD2); conc 1 (unit not given)): 74%
%inh (BRD4 (BD2); conc 10 (unit not given)): 89%
%inh (BRD4 (BD2); conc 100 (unit not given)): 95%
IC50 (BRD4 (BD2)): 42 ± 2 nM
Structure (SMILES): Cn1c(SCC(=O)c2ccccc2)nc(=O)c(/N=C(/CBr)c2ccccc2)c1N [Compound 7, (E)-6-Amino-5-((2-bromo-1-phenylethylidene)amino)-1-methyl-2-((2-oxo-2-phenylethyl)thio)pyrimidin-4(1H)-one]
IC50 [1, 5]: 400 ± 10 nM
viability at 0.312 µM ([1]; MTT, 0.312 uM): 57%
viability at 0.625 µM ([1]; MTT, 0.625 uM): 28.9%
viability at 1.25 µM ([1]; MTT, 1.25 uM): 16.5%
viability at 2.5 µM ([1]; MTT, 2.5 uM): 11.7%
viability at 5 µM ([1]; MTT, 5 uM): 11%
viability at 10 µM ([1]; MTT, 10 uM): 4.92%
Toxicity % ([1]; MTT, 0.312 uM): 42.95%
Toxicity % ([1]; MTT, 0.625 uM): 71.14%
Toxicity % ([1]; MTT, 1.25 uM): 83.51%
Toxicity % ([1]; MTT, 2.5 uM): 88.25%
Toxicity % ([1]; MTT, 5 uM): 88.96%
Toxicity % ([1]; MTT, 10 uM): 95.08%
IC50 [2]: 3920 ± 80 nM
viability at 0.312 µM [2]: 99.6%
viability at 0.625 µM [2]: 99.8%
viability at 1.25 µM [2]: 97.6%
viability at 2.5 µM [2]: 73.5%
viability at 5 µM [2]: 31.6%
viability at 10 µM [2]: 10.5%
Toxicity % (normal Vero cells; 0.312 uM): 0.3992%
Toxicity % (normal Vero cells; 0.625 uM): 0.1996%
Toxicity % (normal Vero cells; 1.25 uM): 2.395%
Toxicity % (normal Vero cells; 2.5 uM): 26.55%
Toxicity % (normal Vero cells; 5 uM): 68.38%
Toxicity % (normal Vero cells; 10 uM): 89.46%
IC50 (U-937 renal cancer cells; [6]): 1850 ± 40 nM
Toxicity % (U-937 renal cancer cells; U937, MTT, 0.312 uM): 5.991%
Toxicity % (U-937 renal cancer cells; U937, MTT, 0.625 uM): 11.66%
Toxicity % (U-937 renal cancer cells; U937, MTT, 1.25 uM): 44.55%
Toxicity % (U-937 renal cancer cells; U937, MTT, 2.5 uM): 60.35%
Toxicity % (U-937 renal cancer cells; U937, MTT, 5 uM): 70.37%
Toxicity % (U-937 renal cancer cells; U937, MTT, 10 uM): 88.56%
viability at 0.312 µM [3]: 94%
viability at 0.625 µM [3]: 88.3%
viability at 1.25 µM [3]: 55.4%
viability at 2.5 µM [3]: 39.7%
viability at 5 µM [3]: 29.6%
viability at 10 µM [3]: 11.4%
Toxicity % ([4]; HT29, MTT, 0.312 uM): 0.04307%
Toxicity % ([4]; HT29, MTT, 0.625 uM): 45.56%
Toxicity % ([4]; HT29, MTT, 1.25 uM): 86.39%
Toxicity % ([4]; HT29, MTT, 2.5 uM): 88.67%
Toxicity % ([4]; HT29, MTT, 5 uM): 93.28%
Toxicity % ([4]; HT29, MTT, 10 uM): 93.71%
viability at 0.312 µM ([4]; HT29, MTT, 0.312 uM): 100%
viability at 0.625 µM ([4]; HT29, MTT, 0.625 uM): 54.4%
viability at 1.25 µM ([4]; HT29, MTT, 1.25 uM): 13.6%
viability at 2.5 µM ([4]; HT29, MTT, 2.5 uM): 11.3%
viability at 5 µM ([4]; HT29, MTT, 5 uM): 6.72%
viability at 10 µM ([4]; HT29, MTT, 10 uM): 6.29%
IC50 [4, 8]: 790 ± 10 nM
